# Source: US20080103198A1, “METHODS FOR TREATMENT OF COCHLEAR AND VESTIBULAR DISORDERS” (priority 2006, published 2008)
# Several values for one entry are separate records, joined by “and”; a condition that tells them apart may be missing. Equal entries are not always repeated.
# How the values were obtained:
# Li-Pilo SE [1] = assay: Lithium-pilocarpine model (Example 2): quantification of cell densities; format: in vivo, rat; details: for number of neuronal cell bodies, Dorsal entorhinal, layer II / number of neuronal cell bodies, Dorsal entorhinal, layer III / number of neuronal cell bodies, Piriform, layer II, dorsal / number of neuronal cell bodies, Piriform, layer II, ventral / number of neuronal cell bodies, Piriform, layer III / number of neuronal cell bodies, Ventral entorhinal, layer II / number of neuronal cell bodies, Ventral entorhinal, layers III-IV / number of neuronal cell bodies, hippocampus CA1 area / number of neuronal cell bodies, hippocampus CA3 area / number of neuronal cell bodies, hippocampus Hilus / damage, hilus of dentate gyrus / cell loss, CA1 pyramidal layer: 14 days after SE; for number of neuronal cell bodies, Dorsal entorhinal, layer II / number of neuronal cell bodies, Dorsal entorhinal, layer III / number of neuronal cell bodies, Piriform, layer II, dorsal / number of neuronal cell bodies, Piriform, layer II, ventral / number of neuronal cell bodies, Piriform, layer III / number of neuronal cell bodies, Ventral entorhinal, layer II / number of neuronal cell bodies, Ventral entorhinal, layers III-IV / number of neuronal cell bodies, hippocampus CA1 area / number of neuronal cell bodies, hippocampus CA3 area / number of neuronal cell bodies, hippocampus Hilus: mean ± S.E.M.
# Method: Quantification of cell densities was performed at two times after SE: a first group was studied 14 days after SE and was composed by 7 DZP, 8 RWJ30, 11 RWJ60, 10 RWJ90, 8 RWJ120 and 8 control rats not subjected to SE. A second group used for the study of the latency to SRS was sacrificed either 8 weeks after the first SRS or at 5 months when no SRS could be seen in that delay and was composed by 7 DZP, 2 RWJ30, 3 RWJ60, 3 RWJ90, 4 RWJ120 rats. Animals were deeply anesthetized with 1.8 g/kg pentobarbital (Dolethal®, Vétoquinol, Lure, France). Brains were then removed and frozen. Serial 20 μm slices were cut in a cryostat, air-dried during several days before thionine staining. Quantification of cell densities was performed with a 10×10 boxes 1 cm^2 microscopic grid on coronal sections according to the stereotaxic coordinates of the rat brain atlas (Paxinos and Watson, 1986, The Rat Brain in Stereotaxic coordinates, 2nd ed. Academic Press, San Diego). The grid of counting was placed on a well-defined area of the cerebral structure of interest and counting was carried out with a microscopic enlargement of 200- or 400-fold defined for each single cerebral structure. Cell counts were performed twice on each side of three adjacent sections for each region by a single observer unaware of the animal's treatment. The number of cells obtained in the 12 counted fields in each cerebral structure was averaged. This procedure was used to minimize the potential errors that could result from double counting leading to overestimation of cell numbers. […] Counts involved only neurons with cell bodies larger than 10 μm. Cells with small cell bodies were considered as glial cells and were not counted.
# For neuronal damage, statistical analysis between groups was performed by means of a one-way analysis of variance followed by a post-hoc Scheffe's test using the Statview software.
# Li-Pilo SE [2] = assay: Lithium-pilocarpine model (Example 2): mortality and latency to SRS; format: in vivo, rat; parameters: degree of mortality: concentration or dose not given beside the values; details: for mortality over the first 48 h after SE: early cell counting group; for degree of mortality: latency to SRS / late cell counting group
# Method: The model induced in rats by pilocarpine associated with lithium (Li-Pilo) reproduces most of the clinical and neurophysiological features of human temporal lobe epilepsy (See, Turski et al., 1989; Synapse 3:154-171; Cavalheiro, 1995, Ital J Neurol Sci 16:33-37). In adult rats, the systemic administration of pilocarpine leads to SE that may last for up to 24 h. The lethality rate reaches 30-50% during the first days. In the surviving animals, neuronal damage predominates within the hippocampal formation, the piriform and entorhinal cortices, thalamus, amygdaloid complex, neocortex and substantia nigra.
# In the present study, we tested the effects of different doses of various doses of test compound, i.e. 30, 60, 90 and 120 mg/kg (referred to herein as RWJ30, RWJ60, RWJ90 and RWJ120) using the same design as in the previous study. The treatment was started one hour after the onset of status epilepticus (SE) and the animals were treated with a second injection of the same dose of the drug. This early treatment of SE was followed by a 6 day test compound treatment. This report concerns the effects of the four different doses of test compound on neuronal damage in hippocampus and parahippocampal cortices. The study on the latency to the onset of epilepsy is still incomplete but we will show the data we have got at present which have been performed on a limited group of animals. The latency to spontaneous epileptic seizures was correlated on the same rats to the number of neurons remaining in the areas involved in the circuit of seizures.
# Adult male Sprague-Dawley rats provided by Janvier Breeding Center (Le Genest-St-Isle, France) were housed under controlled, uncrowded standard conditions at 20-22° C. (light/dark cycle, 7.00 a.m.-7.00 p.m. lights on), with food and water available ad libitum. All animal experimentation was performed in accordance with the rules of the European Communities Council Directive of Nov. 24, 1986 (86/609/EEC), and the French Department of Agriculture (License No 67-97).
# All rats received lithium chloride (3 meq/kg, i.p., Sigma, St Louis, Mo., U.S.A.) and about 20 h later, all animals received also methylscopolamine bromide (1 mg/kg, s.c., Sigma) that was administered to limit the peripheral effects of the convulsant. SE was induced by injecting pilocarpine hydrochloride (25 mg/kg, s.c., Sigma) 30 min after methylscopolamine. The effects of increasing doses of test compound (RWJ) were studied in 5 groups of rats. The animals received either 2.5 mg/kg diazepam, i.m., (DZP), or 30, 60, 90 or 120 mg/kg of test compound (RWJ30, RWJ60, RWJ90, RWJ120), i.p., at 1 h after the onset of SE. The control group received vehicle instead of pilocarpine and test compound. The rats surviving SE were then injected about 10 h after the first test compound injection with a second i.p. injection of 1.25 mg/kg DZP for the DZP group or of the same dose of test compound as in the morning and were maintained under a twice daily test compound treatment for 6 additional days (s.c.) while DZP rats received a vehicle injection. The effects of the four doses of test compound on the latency to occurrence of spontaneous recurrent seizures (SRS) were investigated by daily video recording of the animals for 10 h per day.
smiles,measurement,setting,value
NC(=O)OC[C@@H](O)c1ccccc1Cl [test compound],"damage, piriform cortex ventral layer II",Li-Pilo SE [1]; 60 mg/kg,56%
same,"cell loss, piriform cortex layer III",Li-Pilo SE [1]; 120 mg/kg,21%
same,"damage, piriform cortex ventral layer II",Li-Pilo SE [1]; 120 mg/kg,9%
same,neuroprotection in CA3 pyramidal layer,"Li-Pilo SE [1]; 120 mg/kg, difference with DZP not significant",tendency to a slight neuroprotection
same,neuroprotection in all layers of the dorsal entorhinal cortex,Li-Pilo SE [1]; 30 and 60 mg/kg,did not afford any neuroprotection
same,"damage, piriform cortex dorsal layer II",Li-Pilo SE [1]; 60-120 mg/kg,4-21%
same,"cell loss, piriform cortex layer III",Li-Pilo SE [1]; 60 and 90 mg/kg (two lower of the 60-120 mg/kg doses),53-64%
same,"cell losses, ventral entorhinal cortex layers III/IV",Li-Pilo SE [1]; 90 and 120 mg/kg,18-21%
same,"damage remaining, entorhinal cortex dorsal layers II and III/IV and ventral layer II",Li-Pilo SE [1]; 90 and 120 mg/kg,4-14%
same,"number of neuronal cell bodies, Dorsal entorhinal, layer II",Li-Pilo SE [1]; RWJ30 = 30 mg/kg,23.4 ± 0.8
same,"number of neuronal cell bodies, Dorsal entorhinal, layer III",Li-Pilo SE [1]; RWJ30 = 30 mg/kg,21.5 ± 1.3
same,"number of neuronal cell bodies, Piriform, layer II, dorsal",Li-Pilo SE [1]; RWJ30 = 30 mg/kg,15.7 ± 3.6
same,"number of neuronal cell bodies, Piriform, layer II, ventral",Li-Pilo SE [1]; RWJ30 = 30 mg/kg,7.2 ± 4.6
same,"number of neuronal cell bodies, Piriform, layer III",Li-Pilo SE [1]; RWJ30 = 30 mg/kg,1.8 ± 2.3
same,"number of neuronal cell bodies, Ventral entorhinal, layer II",Li-Pilo SE [1]; RWJ30 = 30 mg/kg,22.7 ± 1.2
same,"number of neuronal cell bodies, Ventral entorhinal, layers III-IV",Li-Pilo SE [1]; RWJ30 = 30 mg/kg,13.2 ± 2.5
same,"number of neuronal cell bodies, hippocampus CA1 area",Li-Pilo SE [1]; RWJ30 = 30 mg/kg,39.3 ± 5.0°°
same,"number of neuronal cell bodies, hippocampus CA3 area",Li-Pilo SE [1]; RWJ30 = 30 mg/kg,35.7 ± 1.4
same,"number of neuronal cell bodies, hippocampus Hilus",Li-Pilo SE [1]; RWJ30 = 30 mg/kg,33.0 ± 4.0
same,"number of neuronal cell bodies, Dorsal entorhinal, layer II",Li-Pilo SE [1]; RWJ60 = 60 mg/kg,24.1 ± 0.7
same,"number of neuronal cell bodies, Dorsal entorhinal, layer III",Li-Pilo SE [1]; RWJ60 = 60 mg/kg,24.0 ± 0.4
same,"number of neuronal cell bodies, Piriform, layer II, dorsal",Li-Pilo SE [1]; RWJ60 = 60 mg/kg,28.9 ± 2.7°°
same,"number of neuronal cell bodies, Piriform, layer II, ventral",Li-Pilo SE [1]; RWJ60 = 60 mg/kg,14.8 ± 5.9
same,"number of neuronal cell bodies, Piriform, layer III",Li-Pilo SE [1]; RWJ60 = 60 mg/kg,6.9 ± 2.9
same,"number of neuronal cell bodies, Ventral entorhinal, layer II",Li-Pilo SE [1]; RWJ60 = 60 mg/kg,23.1 ± 0.7
same,"number of neuronal cell bodies, Ventral entorhinal, layers III-IV",Li-Pilo SE [1]; RWJ60 = 60 mg/kg,17.8 ± 2.8
same,"number of neuronal cell bodies, hippocampus CA1 area",Li-Pilo SE [1]; RWJ60 = 60 mg/kg,31.9 ± 4.4
same,"number of neuronal cell bodies, hippocampus CA3 area",Li-Pilo SE [1]; RWJ60 = 60 mg/kg,31.6 ± 2.1
same,"number of neuronal cell bodies, hippocampus Hilus",Li-Pilo SE [1]; RWJ60 = 60 mg/kg,32.8 ± 5.4
same,"number of neuronal cell bodies, Dorsal entorhinal, layer II",Li-Pilo SE [1]; RWJ90 = 90 mg/kg,26.3 ± 0.9
same,"number of neuronal cell bodies, Dorsal entorhinal, layer III",Li-Pilo SE [1]; RWJ90 = 90 mg/kg,25.4 ± 1.3
same,"number of neuronal cell bodies, Piriform, layer II, dorsal",Li-Pilo SE [1]; RWJ90 = 90 mg/kg,32.4 ± 1.3°
same,"number of neuronal cell bodies, Piriform, layer II, ventral",Li-Pilo SE [1]; RWJ90 = 90 mg/kg,18.4 ± 5.1
same,"number of neuronal cell bodies, Piriform, layer III",Li-Pilo SE [1]; RWJ90 = 90 mg/kg,9.0 ± 4.1
same,"number of neuronal cell bodies, Ventral entorhinal, layer II",Li-Pilo SE [1]; RWJ90 = 90 mg/kg,26.7 ± 0.9°°
same,"number of neuronal cell bodies, Ventral entorhinal, layers III-IV",Li-Pilo SE [1]; RWJ90 = 90 mg/kg,23.7 ± 1.7°
same,"number of neuronal cell bodies, hippocampus CA1 area",Li-Pilo SE [1]; RWJ90 = 90 mg/kg,47.7 ± 5.4°
same,"number of neuronal cell bodies, hippocampus CA3 area",Li-Pilo SE [1]; RWJ90 = 90 mg/kg,35.1 ± 1.0
same,"number of neuronal cell bodies, hippocampus Hilus",Li-Pilo SE [1]; RWJ90 = 90 mg/kg,37.5 ± 5.2**°
same,"number of neuronal cell bodies, Dorsal entorhinal, layer II",Li-Pilo SE [1]; RWJ120 = 120 mg/kg,27.3 ± 0.5
same,"number of neuronal cell bodies, Dorsal entorhinal, layer III",Li-Pilo SE [1]; RWJ120 = 120 mg/kg,26.4 ± 0.9
same,"number of neuronal cell bodies, Piriform, layer II, dorsal",Li-Pilo SE [1]; RWJ120 = 120 mg/kg,35.2 ± 1.3°
same,"number of neuronal cell bodies, Piriform, layer II, ventral",Li-Pilo SE [1]; RWJ120 = 120 mg/kg,30.5 ± 1.5°
same,"number of neuronal cell bodies, Piriform, layer III",Li-Pilo SE [1]; RWJ120 = 120 mg/kg,15.0 ± 2.5°°
same,"number of neuronal cell bodies, Ventral entorhinal, layer II",Li-Pilo SE [1]; RWJ120 = 120 mg/kg,25.1 ± 0.7
same,"number of neuronal cell bodies, Ventral entorhinal, layers III-IV",Li-Pilo SE [1]; RWJ120 = 120 mg/kg,24.5 ± 1.6°
same,"number of neuronal cell bodies, hippocampus CA1 area",Li-Pilo SE [1]; RWJ120 = 120 mg/kg,65.5 ± 2.9°
same,"number of neuronal cell bodies, hippocampus CA3 area",Li-Pilo SE [1]; RWJ120 = 120 mg/kg,39.8 ± 1.5
same,"number of neuronal cell bodies, hippocampus Hilus",Li-Pilo SE [1]; RWJ120 = 120 mg/kg,44.8 ± 3.6
same,"damage, hilus of dentate gyrus","Li-Pilo SE [1]; RWJ30, 60 and 90 groups",62-66%
same,"cell loss, CA1 pyramidal layer","Li-Pilo SE [1]; RWJ30, 60 or 90 rats",36-57%
same,neuroprotection in piriform cortex,Li-Pilo SE [1]; RWJ30 dose,did not protect any layer
same,"cell loss, CA1 pyramidal layer",Li-Pilo SE [1]; RWJ120,13%
same,"damage, hilus of dentate gyrus",Li-Pilo SE [1]; RWJ120,54%
same,"damage, piriform cortex ventral layer II",Li-Pilo SE [1]; second dose of 'the 60 and 120 mg/kg RWJ dose' as printed,45%
same,"latency to spontaneous seizures, individual rats","Li-Pilo SE [2]; 30 mg/kg, two rats",8 days and 9 days
same,"first spontaneous seizure after SE, individual rats","Li-Pilo SE [2]; 60 mg/kg, 3 rats",7 days and 8 days and 38 days
same,"first spontaneous seizure after SE, individual rats","Li-Pilo SE [2]; 90 mg/kg, 3 rats",9 days and 10 days and 51 days
same,"first spontaneous seizure after SE, individual rats","Li-Pilo SE [2]; 120 mg/kg, 2/4 rats with prolonged latency",79 days and 44 days
same,recording time following SE without any seizure,"Li-Pilo SE [2]; 120 mg/kg, the two other rats",> 5 months
same,mortality over the first 48 h after SE,Li-Pilo SE [2]; RWJ30 (30 mg/kg i.p.),43%
same,mortality over the first 48 h after SE,Li-Pilo SE [2]; RWJ60 (60 mg/kg i.p.),0%
same,mortality over the first 48 h after SE,Li-Pilo SE [2]; RWJ90 (90 mg/kg i.p.),0%
same,mortality over the first 48 h after SE,Li-Pilo SE [2]; RWJ120 (120 mg/kg i.p.),47%
same,degree of mortality,Li-Pilo SE [2]; RWJ30,50%
same,degree of mortality,Li-Pilo SE [2]; RWJ60,0%
same,degree of mortality,Li-Pilo SE [2]; RWJ90,0%
same,degree of mortality,Li-Pilo SE [2]; RWJ120,0%
